According to the supplement of paper PMC10883282:

Tests used:
Assay in all cases: relative viability vs DMSO control (72 h) (fraction); higher = more viable cells
G401 = tested on: G401
In short: (§1)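 Relative viability was measured with ATPLite and expressed as percent growth, averaged across up to triplicate wells. Sarcoma cell lines had been seeded in 384-well plates to reach 80–90% confluence, dosed after 24 h, and incubated 72 h at 37 °C, 5% CO2. All data were rescaled on a scale where 1 is full and 0 is none.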

HT1080 = tested on: HT1080
In short: as §1

KHOS-240S = tested on: KHOS-240S
In short: as §1

MES-SA = tested on: MES-SA
In short: as §1

RD-ES = tested on: RD-ES
In short: as §1

RD = tested on: RD
In short: as §1

SK-ES-1 = tested on: SK-ES-1
In short: as §1

SK-LMS-1 = tested on: SK-LMS-1
In short: as §1

SW1353 = tested on: SW1353
In short: as §1

SW982 = tested on: SW982
In short: as §1

SYO-1 = tested on: SYO-1
In short: as §1

VA-ES-BJ = tested on: VA-ES-BJ
In short: as §1

C=CC(=O)Nc1cc(Nc2nccc(-c3cn(C)c4ccccc34)n2)c(OC)cc1N(C)CCN(C)C [Osimertinib]
Conditions | relative viability
G401, 0.00017 µM | 1.01
G401, 0.00051 µM | 1.02
G401, 0.00152 µM | 1.03
G401, 0.00457 µM | 1.03
G401, 0.01372 µM | 1.02
G401, 0.04115 µM | 0.976
G401, 0.1235 µM | 0.962
G401, 0.3704 µM | 0.87
G401, 1.111 µM | 0.816
G401, 3.333 µM | 0.711
G401, 10 µM | 0.0893
HT1080, 0.00017 µM | 1.08
HT1080, 0.00051 µM | 1.09
HT1080, 0.00152 µM | 1.06
HT1080, 0.00457 µM | 1.06
HT1080, 0.01372 µM | 1.04
HT1080, 0.04115 µM | 1.06
HT1080, 0.1235 µM | 1.07
HT1080, 0.3704 µM | 1.03
HT1080, 1.111 µM | 0.992
HT1080, 3.333 µM | 0.935
HT1080, 10 µM | 0.0308
KHOS-240S, 0.00017 µM | 1.05
KHOS-240S, 0.00051 µM | 1.06
KHOS-240S, 0.00152 µM | 1.06
KHOS-240S, 0.00457 µM | 1.08
KHOS-240S, 0.01372 µM | 1.04
KHOS-240S, 0.04115 µM | 1.05
KHOS-240S, 0.1235 µM | 1.05
KHOS-240S, 0.3704 µM | 1.03
KHOS-240S, 1.111 µM | 0.926
KHOS-240S, 3.333 µM | 0.767
KHOS-240S, 10 µM | 0.167
MES-SA, 0.00017 µM | 0.979
MES-SA, 0.00051 µM | 0.947
MES-SA, 0.00152 µM | 0.961
MES-SA, 0.00457 µM | 0.932
MES-SA, 0.01372 µM | 0.97
MES-SA, 0.04115 µM | 0.941
MES-SA, 0.1235 µM | 0.948
MES-SA, 0.3704 µM | 0.882
MES-SA, 1.111 µM | 0.758
MES-SA, 3.333 µM | 0.569
MES-SA, 10 µM | 0.29
RD, 0.00017 µM | 1.08
RD, 0.00051 µM | 1.08
RD, 0.00152 µM | 1.11
RD, 0.00457 µM | 1.11
RD, 0.01372 µM | 1.11
RD, 0.04115 µM | 1.11
RD, 0.1235 µM | 1.1
RD, 0.3704 µM | 1.07
RD, 1.111 µM | 1.02
RD, 3.333 µM | 0.78
RD, 10 µM | 0.0148
RD-ES, 0.00017 µM | 0.962
RD-ES, 0.00051 µM | 0.978
RD-ES, 0.00152 µM | 0.977
RD-ES, 0.00457 µM | 0.971
RD-ES, 0.01372 µM | 0.979
RD-ES, 0.04115 µM | 0.964
RD-ES, 0.1235 µM | 0.947
RD-ES, 0.3704 µM | 0.892
RD-ES, 1.111 µM | 0.775
RD-ES, 3.333 µM | 0.598
RD-ES, 10 µM | 0.0212
SK-ES-1, 0.00017 µM | 1
SK-ES-1, 0.00051 µM | 1.05
SK-ES-1, 0.00152 µM | 1.07
SK-ES-1, 0.00457 µM | 1.01
SK-ES-1, 0.01372 µM | 1.02
SK-ES-1, 0.04115 µM | 1.026
SK-ES-1, 0.1235 µM | 1
SK-ES-1, 0.3704 µM | 0.942
SK-ES-1, 1.111 µM | 0.762
SK-ES-1, 3.333 µM | 0.294
SK-ES-1, 10 µM | 0.011
SK-LMS-1, 0.00017 µM | 1.1
SK-LMS-1, 0.00051 µM | 1.1
SK-LMS-1, 0.00152 µM | 1.08
SK-LMS-1, 0.00457 µM | 1.07
SK-LMS-1, 0.01372 µM | 1.06
SK-LMS-1, 0.04115 µM | 1.03
SK-LMS-1, 0.1235 µM | 1.07
SK-LMS-1, 0.3704 µM | 1.02
SK-LMS-1, 1.111 µM | 0.972
SK-LMS-1, 3.333 µM | 0.776
SK-LMS-1, 10 µM | 0.032
SW982, 0.00017 µM | 1.02
SW982, 0.00051 µM | 1.05
SW982, 0.00152 µM | 1.01
SW982, 0.00457 µM | 1.03
SW982, 0.01372 µM | 1.04
SW982, 0.04115 µM | 1.03
SW982, 0.1235 µM | 0.996
SW982, 0.3704 µM | 0.983
SW982, 1.111 µM | 0.881
SW982, 3.333 µM | 0.678
SW982, 10 µM | 0.017
SW1353, 0.00017 µM | 1.014
SW1353, 0.00051 µM | 1.007
SW1353, 0.00152 µM | 1.002
SW1353, 0.00457 µM | 1
SW1353, 0.01372 µM | 0.97
SW1353, 0.04115 µM | 0.96
SW1353, 0.1235 µM | 0.9
SW1353, 0.3704 µM | 0.82
SW1353, 1.111 µM | 0.8
SW1353, 3.333 µM | 0.742
SW1353, 10 µM | 0.0174
SYO-1, 0.00017 µM | 1.02
SYO-1, 0.00051 µM | 0.992
SYO-1, 0.00152 µM | 0.969
SYO-1, 0.00457 µM | 0.971
SYO-1, 0.01372 µM | 0.935
SYO-1, 0.04115 µM | 0.9
SYO-1, 0.1235 µM | 0.847
SYO-1, 0.3704 µM | 0.713
SYO-1, 1.111 µM | 0.576
SYO-1, 3.333 µM | 0.418
SYO-1, 10 µM | -0.0037
VA-ES-BJ, 0.00017 µM | 1.09
VA-ES-BJ, 0.00051 µM | 1.09
VA-ES-BJ, 0.00152 µM | 1.06
VA-ES-BJ, 0.00457 µM | 1.04
VA-ES-BJ, 0.01372 µM | 1.03
VA-ES-BJ, 0.04115 µM | 1.02
VA-ES-BJ, 0.1235 µM | 0.984
VA-ES-BJ, 0.3704 µM | 0.926
VA-ES-BJ, 1.111 µM | 0.877
VA-ES-BJ, 3.333 µM | 0.752
VA-ES-BJ, 10 µM | 0.0739
